Measurements published in patent publication US12312343B2, “Rotomeric isomers of 4-alkyl-5-heteroaryl-3H-1,2-dithiole-3-thiones” (ST IP HOLDING AG, priority 2018, dated 2025).

What was measured:
[1] = tested on: GSTP1; assay: Human oxidative stress RT2 Profiler PCR array in HGEPp cells: GSTP1; type: cell-based; settings: 100 μg/ml, 24 h, RT-PCR ΔΔCt
Protocol: (§1) RT-PCR was performed on an iCycler.

[2] = tested on: GTF2i; assay: Human oxidative stress RT2 Profiler PCR array in HGEPp cells: GTF2i; type: cell-based; settings: 100 μg/ml, 24 h, RT-PCR ΔΔCt
Protocol: as §1

[3] = tested on: GPX1; assay: Human oxidative stress RT2 Profiler PCR array in HGEPp cells: GPX1; type: cell-based; settings: 100 μg/ml, 24 h, RT-PCR ΔΔCt
Protocol: as §1

[4] = tested on: NQO1; assay: Human oxidative stress RT2 Profiler PCR array in HGEPp cells: NQO1; type: cell-based; settings: 100 μg/ml, 24 h, RT-PCR ΔΔCt
Protocol: as §1

[5] = tested on: GCLM; assay: Human oxidative stress RT2 Profiler PCR array in HGEPp cells: GCLM; type: cell-based; settings: 100 μg/ml, 24 h, RT-PCR ΔΔCt
Protocol: as §1

[6] = tested on: SOD1; assay: Human oxidative stress RT2 Profiler PCR array in HGEPp cells: SOD1; type: cell-based; settings: 100 μg/ml, 24 h, RT-PCR ΔΔCt
Protocol: as §1

[7] = tested on: PTGS1; assay: Human oxidative stress RT2 Profiler PCR array in HGEPp cells: PTGS1; type: cell-based; settings: 100 μg/ml, 24 h, RT-PCR ΔΔCt
Protocol: as §1

[8] = tested on: UCP2; assay: Human oxidative stress RT2 Profiler PCR array in HGEPp cells: UCP2; type: cell-based; settings: 100 μg/ml, 24 h, RT-PCR ΔΔCt
Protocol: as §1

[9] = tested on: GCLC; assay: Human oxidative stress RT2 Profiler PCR array in HGEPp cells: GCLC; type: cell-based; settings: 100 μg/ml, 24 h, RT-PCR ΔΔCt
Protocol: as §1

[10] = tested on: ALOX12; assay: Human oxidative stress RT2 Profiler PCR array in HGEPp cells: ALOX12; type: cell-based; settings: 100 μg/ml, 24 h, RT-PCR ΔΔCt
Protocol: as §1

[11] = tested on: HGEPp cells; settings: 100 μg/mL pretreatment; taken from PCT/IB2017/001312; cited from earlier work

Cc1c(-c2cnccn2)ssc1=S [ST-617-API, 4-methyl-5-(pyrazin-2-yl)-3H-1,2-dithiole-3-thione, reference compound]
GSTP1 up regulation relative fold change [1]: 2.17 fold
GTF2i down regulation relative fold change [2]: 0.34 fold
GPX1 up regulation relative fold change [3]: 4.88 fold
NQO1 up regulation relative fold change [4]: 2.95 fold
GCLM up regulation relative fold change [5]: 3.03 fold
SOD1 up regulation relative fold change [6]: 2.46 fold
PTGS1 down regulation relative fold change [7]: 0.22 fold
UCP2 down regulation relative fold change [8]: 0.18 fold
GCLC up regulation relative fold change [9]: 4.14 fold
ALOX12 up regulation relative fold change [10]: 6.15 fold
ROS level (optical density, Normal = 100% baseline), as reported in PCT/IB2017/001312 [11]: 124%
